Test results reported in US20080293060A1, “Methods and Compositions for Identification of Hydrocarbon Response, Transport and Biosynthesis Genes” (priority 2007, published 2008).

Tested on: ARE in Acinetobacter WH405
Type: cell-based, Acinetobacter strain WH405 (derivative of strain ADP1)
Conditions: hydrocarbon at 5 and 50 mM, WH405 in LB, 37° C. overnight
Experimental: Acinetobacter strain WH405, an ARE::lacZ derivative of strain ADP1 (Ratajczak et al 1998), was scraped from an overnight plate into LB and diluted to OD600 0.07 (the cells can also be from an overnight culture, as long as cells are diluted in fresh LB). Alkane and alkene induction of the ARE was tested by adding a number of alkenes at 5 and 50 mM to culture tubes, followed by addition of the diluted WH405 solution into tubes (5 mL). Tubes were incubated in a 37° C. shaker overnight. The β-galactosidase activity assay developed by Miller was used to determine the level of induction by the different hydrocarbon from the overnight cultures.

Structure (SMILES) | induction of the ARE (β-galactosidase activity, Miller assay)
C=CCCCCCCCCCCCCCCCCCC [1-eicosene] | induced
C=CCCCCCCCCCCCCCCC [1-heptadecene] | induced
C=CCCCCCCCCCCCCCC [1-hexadecene] | induced
C=CCCCCCCCCCCCCCCCCC [1-nonadecene] | induced
C=CCCCCCCCCCCCCCCCC [1-octadecene] | induced
CCCCCCCC/C=C\CCCCCCCCCCCCC [9-cis tricosene] | induced
CCCCCCCC/C=C\CCCCCCCCCCC [9-cis-heneicosene] | induced
CCCCCCCCCC [decane] | induced
CCCCCCCCCCCCCCCC [hexadecane] | induced
CCCCCC [hexane] | not
CCCCCCCC [octane] | induces
